Results published in patent publication US20240140947A1, “COMPOUND FOR THE TREATMENT OF CANCER” (priority 2022, published 2024).
Where two headings read alike, the source gives them in different places.

Assays:
[1] = system: T47D parental; test: Cell proliferation assay (CYQUANT, 7 days), T47D parental; format: cell-based; details: Homo sapiens, 168 h, read-out: IC50 ± SEM, proliferation inhibition
Method: (§1) Cellular CDK activity of Compound 1 and PF-06873600 were assessed in human CCNE1-amplified ovarian cancer cell line model OVCAR3 and human ER+ breast cancer cell line model MCF7 cells. […] OVCAR3 cells were treated overnight with 1 mM hydroxyurea to enrich for G1/S phase cells prior to treatment with inhibitors. Functional effects were measured in a 7-day anti-proliferation assay in one human ovarian cancer (OVCAR3), two human ER+ breast cancer (MCF7 and T47D) and three human non-small cell lung cancer (NCIH2087, NCIH358 and A549) cell line models.
(§2) OVCAR3, MCF7, T47D, HCC1428, NCIH2087, NCIH358 or A549cells were seeded 1-3000 cells/well in 96-well plates in growth media containing 10% FBS and cultured overnight at 37° C. 5% CO2. The following day, compounds were serially diluted from a 10 mM top dose for an 11-point 3-fold dilution curve in DMSO. […] CYQUANT Direct Cell Proliferation Assay (Molecular Probes, Eugene, OR) was then performed following manufacturer recommendations to determine the relative viable cell numbers on the Perkin Elmer Envision 2104 Multi Label Reader at 508 nm excitation and 527 nm emission wavelengths. IC50 values were calculated by concentration-response curve fitting utilizing a four-parameter analytical method using GraphPad Prism software.

[2] = Dog i.v. pharmacokinetic study; format: in vivo; details: for Vd: dog, plasma, iv, 0.1 mg/kg, male Beagle dogs, read-out: Dog Vdss
Method: Dog PK studies were done at Pfizer (Groton, CT); animal care and in vivo procedures were conducted according to guidelines from the Pfizer Institutional Animal Care and Use Committee. Male Beagle dogs were purchased from Marshall BioResources (North Rose, New York) and were typically 1-5 years of age at the time of dosing. Compounds were administered i.v. via the cephalic vein (n=2), dosed as a solution using standard compatible excipients at 0.5 mL/kg for a resulting dose of 0.1 mg/kg. Serial blood samples were collected via the jugular vein at predetermined timepoints after dosing. Animals were monitored for pain or distress throughout the study, with at least daily monitoring during normal husbandry prior to study start. Blood samples were collected into tubes containing K3EDTA and stored on ice until centrifugation to obtain plasma, which was stored frozen at −20° C. or lower. Urine samples were collected at room temperature and stored frozen at −20° C. or lower at the end of each time interval. Plasma samples from the animal PK studies were processed using protein precipitation with acetonitrile: methanol (1:1) containing internal standard verapamil followed by quantitation by LC-MS/MS against a standard curve prepared in blank plasma. Pharmacokinetic parameters were calculated using noncompartmental analysis (Watson v.7.5, Thermo Scientific).

[3] = Human blood binding (fub = fup/BPR); format: in vitro ADME; details: fup divided by BPR
Method: Compound 1 has been evaluated according to methods well known in the art, for its ability to partition between human plasma and blood. Based on the observed partitioning and plasma protein binding, the blood binding was estimated based on human blood unbound fraction (fub)=human plasma unbound fraction (fup)/human blood-to-plasma partition ratio (BPR). Human blood unbound fraction (fub) was calculated by dividing fup by BPR.

[4] = Prediction of human clearance, volume of distribution and elimination half-life; details: for Mean Vdss unbound: (mean animal Vdss unbound values): Wistar-Hannover (rat), rat and/or dog, iv; for CLb: predicted total clearance: scaled from CLint HHEP and fub, Q=20 ml/min/kg
Method: To determine and compare the predicted human elimination half-lives, compounds 1-4 were evaluated for their human blood-to-plasma partition ratio (BPR) along with other key in vitro ADME data including metabolic stability in human hepatocytes (CL, nt HHEP).
The predicted total clearance in human (CLb) was first determined based on the in vitro human metabolism data shown below using the equation:
CLb=(Q·fub·CLintHHEP)/[(Q+fub)·CLintHHEP]
(Scaling Clint HHEP from μl/min/M to ml/min/kg based on hepatocellularity (120×10^6/ g liver), g of liver per Kg bodyweight (21g/Kg), assuming hepatocyte binding is negligible and liver blood flow Q=20 ml/min/kg.)
The projected human volume of distribution at steady state in human blood (Vdss_human) was then calculated based on the animal (rat and/or dog) PK data. The Vdss_human was calculated factoring in differences in blood binding across compounds. Due to the high blood-to-plasma partition ratio in Compounds 1 and 4, the corresponding Vdss_human was limited to the blood volume with Vdss_human estimated to be 0.07 L/Kg.
Using the estimates of CLb and Vdss_human, the predicted human elimination half-lives of compounds 1-4 were calculated according to the equation:
Half-life=0.693·Vdss_human/CLb

[5] = system: HCC1428 PalboR; test: Cell proliferation assay (CYQUANT, 7 days), HCC1428 PalboR; format: cell-based; details: Homo sapiens, read-out: IC50 ± SEM, proliferation inhibition
Method: OVCAR3, MCF7, T47D, HCC1428, NCIH2087, NCIH358 or A549cells were seeded 1-3000 cells/well in 96-well plates in growth media containing 10% FBS and cultured overnight at 37° C. 5% CO2. The following day, compounds were serially diluted from a 10 mM top dose for an 11-point 3-fold dilution curve in DMSO. Compound 1 and PF-06873600 were intermediately diluted 1:200 into growth media prior to diluting 1:5 on cells for final concentration 10 μM to 0.1 nM in 0.1% DMSO on cells. Cells were incubated at 37° C. 5% CO2 for 7 days. CYQUANT Direct Cell Proliferation Assay (Molecular Probes, Eugene, OR) was then performed following manufacturer recommendations to determine the relative viable cell numbers on the Perkin Elmer Envision 2104 Multi Label Reader at 508 nm excitation and 527 nm emission wavelengths. IC50 values were calculated by concentration-response curve fitting utilizing a four-parameter analytical method using GraphPad Prism software.
(§3) The effect of Compound 1 on cell proliferation was assessed in multiple ER+ breast cancer cell lines, including parental and palbociclib resistant cell lines.

[6] = system: MCF7 PalboR; test: Cell proliferation assay (CYQUANT, 7 days), MCF7 PalboR; format: cell-based; details: Homo sapiens, read-out: IC50 ± SEM, proliferation inhibition
Method: as §1
as §2, with “CO2.” for “CO2. The following day, compounds were serially diluted from a 10 mM top dose for an 11-point 3-fold dilution curve in DMSO.”
as §3

[7] = Mouse early toxicology screening (ETS) study; format: in vivo; details: for bone marrow histology: day 14, Compound 1 75 mg/kg BID, PF-06873600 150 mg/kg BID, compared with vehicle
Method: Three groups of ten-week-old male CD1 mice were separately evaluated in early toxicology screening studies. Group 1 (n=5/group) were administered an oral dose of 25, 50 and 75 mg/kg BID of Compound 1 for 14 days. Group 2 (n=5/group) were administered an oral dose of 25, 75 and 150 mg/kg BID of PF-06873600 for 14 days. A vehicle control Group 3 (n=5/group) were also included where vehicle was administered BID for 14 days. Study evaluations included clinical observations, body weights, clinical pathology, toxicokinetics, gross pathology and microscopic pathology.
At the end of the ETS study on day 14, mice were sacrificed and images of the mouse bone marrow from each study group (n=5) were obtained.
The systemic exposure of Compound 1 and PF-06873600 were also compared. Exposures from mouse toxicity studies were determined using plasma samples collected as timepoints on day 8 or 14 of the study and were processed using protein precipitation with solvent mixture acetonitrile:methanol (1:1) containing internal standard verapamil followed by quantitation by LC-MS/MS against a standard curve prepared in blank plasma. The free plasma concentrations were calculated using the mouse plasma protein binding for compound 1 (fup=0.182) and PF-06873600 (fup=0.277). (FIG. 3)

[8] = system: NCIH2087; test: Cell proliferation assay (CYQUANT, 7 days), NCIH2087; format: cell-based; details: Homo sapiens, NCI-H2087, 168 h, read-out: IC50 ± SEM, proliferation inhibition
Method: as §1, §2

C[C@@]1(O)CCC[C@H]1n1c(=O)c(CC(F)F)cc2cnc(NC3CCN(S(N)(=O)=O)CC3)nc21 [Compound 1, 4-({6-(2,2-difluoroethyl)-8-[(1R,2R)-2-hydroxy-2-methylcyclopentyl]-7-oxo-7,8-dihydropyrido[2,3-d]pyrimidin-2-yl}amino)piperidine-1-sulfonamide]
IC50 ([1]; T47D parental, 7 days, mean): 17.6 ± 2.5 nM
Dog Vdss unbound: (Dog Vdss/dog plasma fu) [2]: 6.7 L/kg
Vd [2]: 1.5 L/kg
fraction unbound [3]: 0.0022
Mean Vdss unbound: (mean animal Vdss unbound values) [4]: 8.8 L/kg
(adjusted) predicted t1/2 based on PF-06873600's observed t1/2 ([4]; human): 34 h
Vdss—human limited to the blood volume (lower limit) ([4]; human): 0.07 L/kg
Vdss—human: projected volume of distribution (steady state) ([4]; human): 0.019 L/kg L/Kg
CLb: predicted total clearance ([4]; human): 0.011 mL/min/kg
IC50 ([5]; 168 h, HCC1428 PalboR, 7 days, mean): 61.4 ± 4.9 nM
IC50 ([6]; 168 h, MCF7 PalboR, 7 days, mean): 37.3 ± 2.8 nM
bone marrow histology [7]: lack of impact on the mouse bone marrow
neutropenia ([7]; male CD1 mice, oral 25, 50 and 75 mg/kg BID for 14 days): no neutropenia was observed
IC50 ([8]; NCIH2087, 7 days, mean): 40 ± 6.8 nM

C[C@@]1(O)CCC[C@H]1n1c(=O)c(C(F)F)cc2cnc(NC3CCN(S(C)(=O)=O)CC3)nc21 [Compound 2, reference compound]
IC50 ([1]; T47D): 70.6 ± 14.1 nM
Dog Vdss unbound: (Dog Vdss/dog plasma fu) [2]: 2.8 L/kg
Vd [2]: 1.1 L/kg
fraction unbound [3]: 0.32
Mean Vdss unbound: (mean animal Vdss unbound values) [4]: 2.8 L/kg
Vdss—human: projected volume of distribution (steady state) ([4]; human): 0.9 L/kg
CLb: predicted total clearance ([4]; human): 1.5 mL/min/kg
IC50 ([5]; HCC1428, 168 h): 269 ± 63.9 nM
IC50 ([6]; MCF7, 168 h): 111 ± 56.1 nM
bone marrow histology [7]: vacuoles and large spaces between cells in the bone marrow image indicating cell death/apoptosis
IC50 [8]: 79.8 nM
